From US20090181963A1, “3H-[1,2,3]TRIAZOLO[4,5-D]PYRIMIDINE COMPOUNDS, THEIR USE AS mTOR KINASE AND PI3 KINASE INHIBITORS, AND THEIR [sequence]” (Wyeth, priority 2008, published 2009) come the findings set out here.

One experiment deals with PI3 Kinase α (Homo sapiens, UniProt P42336). Put plainly: Fluorescence polarization assay for PI3K (PI3 Kinase α). The class given is biochemical. The following applies: diC8-PI(4,5)P2 substrate, 25 μM ATP, one hour at 25° C.
A further experiment concerns the target PI3 Kinase γ (Homo sapiens, UniProt P48736). Put plainly: Fluorescence polarization assay for PI3K (PI3 Kinase γ). In kind it is biochemical. The following applies: diC8-PI(4,5)P2 substrate, 25 μM ATP, one hour at 25° C. On the technique in general: Fluorescence polarisation rises when a labelled molecule tumbles more slowly, as on binding a larger partner.

Sequence of PI3 Kinase α (P42336 whole entry): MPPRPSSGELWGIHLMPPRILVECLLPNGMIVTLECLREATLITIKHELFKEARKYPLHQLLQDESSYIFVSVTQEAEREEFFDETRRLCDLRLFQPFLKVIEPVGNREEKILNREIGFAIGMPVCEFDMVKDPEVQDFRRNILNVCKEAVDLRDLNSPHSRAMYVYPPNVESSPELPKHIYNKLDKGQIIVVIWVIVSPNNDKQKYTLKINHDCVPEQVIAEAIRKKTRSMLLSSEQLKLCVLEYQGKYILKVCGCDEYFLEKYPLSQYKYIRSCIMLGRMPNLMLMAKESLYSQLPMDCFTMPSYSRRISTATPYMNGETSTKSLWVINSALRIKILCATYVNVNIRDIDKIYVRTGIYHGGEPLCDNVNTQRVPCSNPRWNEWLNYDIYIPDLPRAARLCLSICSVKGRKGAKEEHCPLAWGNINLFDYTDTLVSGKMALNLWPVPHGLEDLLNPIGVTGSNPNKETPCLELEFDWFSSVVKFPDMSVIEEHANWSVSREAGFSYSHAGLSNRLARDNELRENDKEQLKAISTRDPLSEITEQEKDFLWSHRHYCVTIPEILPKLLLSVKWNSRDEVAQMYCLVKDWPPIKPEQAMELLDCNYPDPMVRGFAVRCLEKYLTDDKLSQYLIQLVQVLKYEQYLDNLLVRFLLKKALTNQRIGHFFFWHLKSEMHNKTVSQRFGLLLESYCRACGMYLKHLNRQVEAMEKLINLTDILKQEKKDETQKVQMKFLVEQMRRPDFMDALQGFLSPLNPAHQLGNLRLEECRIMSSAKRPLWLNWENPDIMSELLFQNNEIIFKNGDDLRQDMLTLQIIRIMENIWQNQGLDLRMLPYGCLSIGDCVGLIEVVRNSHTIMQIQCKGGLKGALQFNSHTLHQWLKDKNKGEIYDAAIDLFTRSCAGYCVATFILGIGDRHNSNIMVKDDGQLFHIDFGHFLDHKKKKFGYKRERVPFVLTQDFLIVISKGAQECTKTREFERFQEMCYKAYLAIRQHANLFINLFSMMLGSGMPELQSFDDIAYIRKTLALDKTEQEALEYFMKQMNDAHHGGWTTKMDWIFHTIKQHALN
Sequence of PI3 Kinase α (P27986 whole entry partner): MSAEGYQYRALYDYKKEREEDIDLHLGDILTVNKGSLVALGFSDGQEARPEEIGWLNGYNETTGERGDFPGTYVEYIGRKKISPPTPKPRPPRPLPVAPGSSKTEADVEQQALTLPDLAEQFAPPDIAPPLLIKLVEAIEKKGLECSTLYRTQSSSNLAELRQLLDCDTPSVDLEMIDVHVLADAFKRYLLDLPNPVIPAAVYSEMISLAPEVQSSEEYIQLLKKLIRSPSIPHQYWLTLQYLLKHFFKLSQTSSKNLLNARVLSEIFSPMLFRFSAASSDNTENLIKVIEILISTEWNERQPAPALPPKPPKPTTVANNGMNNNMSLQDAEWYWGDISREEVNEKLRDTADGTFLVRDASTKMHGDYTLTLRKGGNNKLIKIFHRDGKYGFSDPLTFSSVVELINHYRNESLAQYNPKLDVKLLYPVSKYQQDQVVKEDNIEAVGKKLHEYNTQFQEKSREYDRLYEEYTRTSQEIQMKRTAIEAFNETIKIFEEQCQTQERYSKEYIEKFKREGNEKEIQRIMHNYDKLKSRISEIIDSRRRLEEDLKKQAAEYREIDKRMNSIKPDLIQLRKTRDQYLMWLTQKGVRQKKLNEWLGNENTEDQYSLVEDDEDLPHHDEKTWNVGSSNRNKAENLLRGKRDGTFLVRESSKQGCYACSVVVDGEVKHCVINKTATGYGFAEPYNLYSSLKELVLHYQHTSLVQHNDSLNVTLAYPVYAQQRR
Sequence of PI3 Kinase γ (P48736 whole entry): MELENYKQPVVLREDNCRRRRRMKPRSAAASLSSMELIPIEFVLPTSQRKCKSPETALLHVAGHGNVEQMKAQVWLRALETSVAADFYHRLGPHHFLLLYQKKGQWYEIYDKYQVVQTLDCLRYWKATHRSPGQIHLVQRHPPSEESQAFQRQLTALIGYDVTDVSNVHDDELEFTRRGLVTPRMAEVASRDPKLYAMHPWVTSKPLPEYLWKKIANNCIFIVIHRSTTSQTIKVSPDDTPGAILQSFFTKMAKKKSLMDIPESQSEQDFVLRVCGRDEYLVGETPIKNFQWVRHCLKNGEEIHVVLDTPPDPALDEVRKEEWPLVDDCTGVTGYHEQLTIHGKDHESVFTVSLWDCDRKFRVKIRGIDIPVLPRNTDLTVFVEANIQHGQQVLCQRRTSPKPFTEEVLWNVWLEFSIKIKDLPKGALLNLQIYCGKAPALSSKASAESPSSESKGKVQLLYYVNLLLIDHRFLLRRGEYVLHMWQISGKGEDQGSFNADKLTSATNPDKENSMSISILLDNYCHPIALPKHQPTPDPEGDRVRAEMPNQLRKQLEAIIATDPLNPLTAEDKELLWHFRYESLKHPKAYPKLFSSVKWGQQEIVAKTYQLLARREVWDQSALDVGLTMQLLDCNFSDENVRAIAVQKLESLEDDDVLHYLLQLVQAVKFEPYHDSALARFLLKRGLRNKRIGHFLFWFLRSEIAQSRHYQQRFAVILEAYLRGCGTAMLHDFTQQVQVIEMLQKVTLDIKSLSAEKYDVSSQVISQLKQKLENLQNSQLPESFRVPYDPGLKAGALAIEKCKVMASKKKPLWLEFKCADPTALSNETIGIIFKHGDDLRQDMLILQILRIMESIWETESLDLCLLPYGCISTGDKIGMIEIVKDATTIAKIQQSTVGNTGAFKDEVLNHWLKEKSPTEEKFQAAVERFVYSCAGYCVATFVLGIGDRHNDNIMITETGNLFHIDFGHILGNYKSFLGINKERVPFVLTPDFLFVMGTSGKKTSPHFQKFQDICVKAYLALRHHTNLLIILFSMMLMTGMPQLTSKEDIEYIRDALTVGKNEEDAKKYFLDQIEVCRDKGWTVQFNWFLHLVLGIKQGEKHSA
Method for PI3 Kinase α: (§1) Nunc 384 well black polypropylene fluorescent plates were used for PI3K assays. Reactions were quenched by the addition of EDTA to a final concentration of 10 μM. Final reaction volumes were 10 ml. […] Reactions were allowed to proceed for one hour at 25° C. After I hour, GST-tagged GRP1 (general receptor for phosphoinositides) PH domain fusion protein was added to a final concentration of 100 nM, and BODIPY-TMRI(1,3,4,5)P4 (Echelon) was also added to a final concentration of 5 nM. Final sample volumes were 25 μl with a final DMSO concentration of 0.8%. Assay Plates were read on PerkinElmer Envision plate readers with appropriate filters for Tamra [BODIPY-TMRI(1,3,4,5)P4]. Data obtained were used to calculate enzymatic activity and enzyme inhibition by inhibitor compounds.
Method for PI3 Kinase γ: as §1

For `CN(C)CCCNC(=O)c1ccc(Cn2nnc3c(N4CCOCC4)nc(-c4cccc(O)c4)nc32)cc1` [Example 215, N-[3-(dimethylamino)propyl]-4-{[5-(3-hydroxyphenyl)-7-morpholin-4-yl-3H-[1,2,3]triazolo[4,5-d]pyrimidin-3-yl]methyl}benzamide], the IC50 – broadly, the concentration at which inhibition is half-maximal – at PI3 Kinase α came to 335 nM; at PI3 Kinase γ, 4030 nM.
For `O=C(Nc1cccnc1)c1ccc(Cn2nnc3c(N4CCOCC4)nc(-c4cccc(O)c4)nc32)cc1` [Example 216, 4-{[5-(3-hydroxyphenyl)-7-morpholin-4-yl-3H-[1,2,3]triazolo[4,5-d]pyrimidin-3-yl]methyl}-N-pyridin-3-ylbenzamide], in that order: 58 nM and 361 nM.
For the compound `O=C(Nc1ccc(F)cc1)c1ccc(Cn2nnc3c(N4CCOCC4)nc(-c4cccc(O)c4)nc32)cc1` [Example 217, N-(4-fluorophenyl)-4-{[5-(3-hydroxyphenyl)-7-morpholin-4-yl-3H-[1,2,3]triazolo[4,5-d]pyrimidin-3-yl]methyl}benzamide], the half-maximal inhibitory concentration (IC50) against PI3 Kinase α and against PI3 Kinase γ was 240 nM each time.
Turning to `CC(C)(C)OC(=O)N1CCN(c2ccc(NC(=O)c3ccc(Cn4nnc5c(N6CCOCC6)nc(-c6cccc(O)c6)nc54)cc3)cc2)CC1` [Example 218, tert-Butyl 4-{4-[(4-{[5-(3-hydroxyphenyl)-7-morpholin-4-yl-3H-[1,2,3]triazolo[4,5-d]pyrimidin-3-yl]methyl}benzoyl)amino]phenyl}piperazine-1-carboxylate], the figures for the IC50 against PI3 Kinase α and against PI3 Kinase γ were 71 nM and 8080 nM, respectively.
Turning to `CCNC(=O)c1ccc(Cn2nnc3c(N4CCOCC4)nc(-c4cccc(O)c4)nc32)cc1` [Example 219, N-ethyl-4-{[5-(3-hydroxyphenyl)-7-morpholin-4-yl-3H-[1,2,3]triazolo[4,5-d]pyrimidin-3-yl]methyl}benzamide], the IC50 was 260 nM against PI3 Kinase α and 1840 nM against PI3 Kinase γ.
Consider `CCN(CC)C(=O)c1ccc(Cn2nnc3c(N4CCOCC4)nc(-c4cccc(O)c4)nc32)cc1` [Example 220, N,N-diethyl-4-{[5-(3-hydroxyphenyl)-7-morpholin-4-yl-3H-[1,2,3]triazolo[4,5-d]pyrimidin-3-yl]methyl}benzamide], for which the IC50 was 1150 nM against PI3 Kinase α and 2420 nM against PI3 Kinase γ.
Consider `O=C(NC1CC1)c1ccc(Cn2nnc3c(N4CCOCC4)nc(-c4cccc(O)c4)nc32)cc1` [Example 221, N-cyclopropyl-4-{[5-(3-hydroxyphenyl)-7-morpholin-4-yl-3H-[1,2,3]triazolo[4,5-d]pyrimidin-3-yl]methyl}benzamide], for which the values for the 50% inhibitory concentration (IC50) against PI3 Kinase α and against PI3 Kinase γ were 303 nM and 1180 nM, respectively.
For the compound `CC(C)(C)NC(=O)c1ccc(Cn2nnc3c(N4CCOCC4)nc(-c4cccc(O)c4)nc32)cc1` [Example 222, N-tert-butyl-4-{[5-(3-hydroxyphenyl)-7-morpholin-4-yl-3H-[1,2,3]triazolo[4,5-d]pyrimidin-3-yl]methyl}benzamide], the IC50 stood at 420 nM at PI3 Kinase α and 1400 nM against PI3 Kinase γ.
With `O=C(NCCc1ccccc1)c1ccc(Cn2nnc3c(N4CCOCC4)nc(-c4cccc(O)c4)nc32)cc1` [Example 223, 4-{[5-(3-hydroxyphenyl)-7-morpholin-4-yl-3H-[1,2,3]triazolo[4,5-d]pyrimidin-3-yl]methyl}-N-(2-phenylethyl)benzamide], the IC50 against PI3 Kinase α turned out to be 175 nM; at PI3 Kinase γ, 2510 nM.
The matching figures for `C[C@H](NC(=O)c1ccc(Cn2nnc3c(N4CCOCC4)nc(-c4cccc(O)c4)nc32)cc1)c1ccccc1` [Example 224, 4-{[5-(3-hydroxyphenyl)-7-morpholin-4-yl-3H-[1,2,3]triazolo[4,5-d]pyrimidin-3-yl]methyl}-N-[(1S)-1-phenylethyl]benzamide]: 90 nM and 1910 nM.
